Measured values as given in patent US20080267942A1, “BENZAZEPIN-2(1H)-ONE DERIVATIVES” (Pfizer Limited, priority 2006, published 2008).

Legend:
[1] = molecular target: T1, bovine beta-2 adrenoceptor (Bos taurus, UniProt Q28044); assay: cAMP assay in CHO cells transfected with the bovine beta-2 adrenoceptor (DiscoveRx Hit Hunter cAMP II); assay type: cell-based; details: CHO cells transfected with bovine beta-2 adrenoceptor, 30 minutes incubation with compound
T1 construct: expressed in transfected cells; host or cells: CHO cells
Description: (§1) CHO cells transfected with the bovine or porcine beta-2 adrenceptors were maintained in culture in DMEM/HAMS F12+10% FBS+2 mM glutamine+500 μg/ml geneticin (for the porcine receptor the medium was supplement with 1.5 mM HEPES) at 37° C. with a 5% CO2 atmosphere.
(§2) Cells were plated into 96 well viewplates in medium and incubated overnight at 37° C. with a 5% CO2 atmosphere. The cells were pre-incubated with 0.5 mM IBMX in PBS for 30 minutes prior to incubation with increasing concentrations of experimental compound (5×10^−12 to 10^−5M) for 30 minutes at 37° C. with a 5% CO2 atmosphere. At the end of the incubation time the compound was removed and the cells assayed for cAMP using the DiscoveRx Hit Hunter cAMP II™ assay kit.
(§3) Duplicate samples were run for each experimental compound and the data generated was analysed using EC50 analysis software in Graphpad Prism.

[2] = molecular target: T2, porcine beta-2 adrenoceptor (Sus scrofa, UniProt Q28997); assay: cAMP assay in CHO cells transfected with the porcine beta-2 adrenoceptor (DiscoveRx Hit Hunter cAMP II); assay type: cell-based; details: CHO cells transfected with porcine beta-2 adrenoceptor, 30 minutes incubation with compound
T2 construct: expressed in transfected cells; host or cells: CHO cells
Description: as §1, §2, §3

T2 sequence (Q28997 whole entry): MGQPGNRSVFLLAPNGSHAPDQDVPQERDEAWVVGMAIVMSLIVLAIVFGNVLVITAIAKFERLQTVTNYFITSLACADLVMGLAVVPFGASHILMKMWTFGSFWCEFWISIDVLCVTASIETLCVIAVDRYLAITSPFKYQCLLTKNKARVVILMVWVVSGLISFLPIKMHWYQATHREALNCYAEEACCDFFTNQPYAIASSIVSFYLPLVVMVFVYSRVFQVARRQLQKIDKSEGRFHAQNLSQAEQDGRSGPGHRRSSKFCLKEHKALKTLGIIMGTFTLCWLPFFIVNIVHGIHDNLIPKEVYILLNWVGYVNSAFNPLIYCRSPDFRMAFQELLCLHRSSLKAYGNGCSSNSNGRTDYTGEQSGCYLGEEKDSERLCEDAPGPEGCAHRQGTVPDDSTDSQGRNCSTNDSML
T1 sequence (Q28044 whole entry): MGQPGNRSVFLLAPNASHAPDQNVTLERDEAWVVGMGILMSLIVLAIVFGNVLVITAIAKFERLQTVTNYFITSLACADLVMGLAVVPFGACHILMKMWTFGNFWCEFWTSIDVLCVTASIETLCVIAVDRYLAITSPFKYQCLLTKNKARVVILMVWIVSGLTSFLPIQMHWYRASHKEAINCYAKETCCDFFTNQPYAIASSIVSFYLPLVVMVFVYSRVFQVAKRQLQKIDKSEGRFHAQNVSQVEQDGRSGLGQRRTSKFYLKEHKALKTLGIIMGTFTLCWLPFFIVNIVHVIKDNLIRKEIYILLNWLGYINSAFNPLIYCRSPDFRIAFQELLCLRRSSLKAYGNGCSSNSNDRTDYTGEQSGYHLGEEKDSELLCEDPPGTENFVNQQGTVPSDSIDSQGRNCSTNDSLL

SMILES	EC50 [1] [nM]	EC50 [2] [nM]
CC(CCc1c[nH]c2ccccc12)NC1CCn2c(=O)[nH]c3cccc(c32)C1O (single isomer, unassigned) [Example 4b, 7-Hydroxy-6-{[3-(1H-indol-3-yl)-1-methylpropyl]amino}-4,5,6,7-tetrahydroimidazo[4,5,1-jk][1]benzazepin-2(1H)-one]	3.8	6.9
CC(CCc1cncs1)N[C@@H]1CCn2c(=O)[nH]c3cccc(c32)[C@H]1O (single isomer, unassigned) [Example 6a, 7-Hydroxy-6-{[1-methyl-3-(1,3-thiazol-5-yl)propyl]amino}-4,5,6,7-tetrahydroimidazo[4,5,1-jk][1]benzazepin-2(1H)-one]	22.9	> 10000
CC(CCc1cncs1)N[C@@H]1CCn2c(=O)[nH]c3cccc(c32)[C@H]1O (single isomer, unassigned) [Example 6b, 7-Hydroxy-6-{[1-methyl-3-(1,3-thiazol-5-yl)propyl]amino}-4,5,6,7-tetrahydroimidazo[4,5,1-jk][1]benzazepin-2(1H)-one]	3.6	> 10000
Cc1nn(C)c(C)c1CCC(C)N[C@@H]1CCn2c(=O)[nH]c3cccc(c32)[C@H]1O (single isomer, unassigned) [Example 9a, 7-Hydroxy-6-{[1-methyl-3-(1,3,5-trimethyl-1H-pyrazol-4-yl)propyl]amino}-4,5,6,7-tetrahydroimidazo[4,5,1-jk][1]benzazepin-2(1H)-one]	402	268
Cc1nn(C)c(C)c1CCC(C)N[C@@H]1CCn2c(=O)[nH]c3cccc(c32)[C@H]1O (single isomer, unassigned) [Example 9b, 7-Hydroxy-6-{[1-methyl-3-(1,3,5-trimethyl-1H-pyrazol-4-yl)propyl]amino}-4,5,6,7-tetrahydroimidazo[4,5,1-jk][1]benzazepin-2(1H)-one]	4.2	2.8
CCOC(=O)c1[nH]c2ccccc2c1CC(C)NC1CCn2c(=O)[nH]c3cccc(c32)C1O (single isomer, unassigned) [Example 16, Ethyl 3-(2-{[7-hydroxy-2-oxo-1,2,4,5,6,7-hexahydroimidazo[4,5,1-jk][1]benzazepin-6-yl]amino}propyl)-1H-indole-2-carboxylate]	26	10
CC(CCc1c[nH]c2ccc(Cl)cc12)N[C@@H]1CCn2c(=O)[nH]c3cccc(c32)[C@H]1O (single isomer, unassigned) [Example 21a, 6-{[3-(5-Chloro-1H-indol-3-yl)-1-methylpropyl]amino}-7-hydroxy-4,5,6,7-tetrahydroimidazo[4,5,1-jk][1]benzazepin-2(1H)-one]	1830	> 10000
CC(CCc1c[nH]c2ccc(Cl)cc12)N[C@@H]1CCn2c(=O)[nH]c3cccc(c32)[C@H]1O (single isomer, unassigned) [Example 21b, 6-{[3-(5-Chloro-1H-indol-3-yl)-1-methylpropyl]amino}-7-hydroxy-4,5,6,7-tetrahydroimidazo[4,5,1-jk][1]benzazepin-2(1H)-one]	15	11
Cc1nc(C)c(CCC(C)N[C@@H]2CCn3c(=O)[nH]c4cccc(c43)[C@H]2O)s1 (single isomer, unassigned) [Example 23a, 6-{[3-(2,4-Dimethyl-1,3-thiazol-5-yl)-1-methylpropyl]amino}-7-hydroxy-4,5,6,7-tetrahydroimidazo[4,5,1-jk][1]benzazepin-2(1H)-one]	153	121
Cc1nc(C)c(CCC(C)N[C@@H]2CCn3c(=O)[nH]c4cccc(c43)[C@H]2O)s1 (single isomer, unassigned) [Example 23b, 6-{[3-(2,4-Dimethyl-1,3-thiazol-5-yl)-1-methylpropyl]amino}-7-hydroxy-4,5,6,7-tetrahydroimidazo[4,5,1-jk][1]benzazepin-2(1H)-one]	12	4.9
Cc1ncc(CCC(C)N[C@@H]2CCn3c(=O)[nH]c4cccc(c43)[C@H]2O)s1 (single isomer, unassigned) [Example 28b, 7-Hydroxy-6-{[1-methyl-3-(2-methyll-1,3-thiazol-5-yl)propyl]amino}-4,5,6,7-tetrahydroimidazo[4,5,1-jk][1]benzazepin-2(1H)-one]	6.6	> 10000
CC(CCc1c[nH]c2ccncc12)N[C@@H]1CCn2c(=O)[nH]c3cccc(c32)[C@H]1O (single isomer, unassigned) [Example 31b, 7-Hydroxy-6-{[1-methyl-3-(1H-pyrrolo[3,2-c]pyridin-3-yl)propyl]amino}-4,5,6,7-tetrahydroimidazo[4,5,1-jk][1]benzazepin-2(1H)-one]	58	43
CC(CCc1c[nH]c2cnccc12)N[C@@H]1CCn2c(=O)[nH]c3cccc(c32)[C@H]1O (single isomer, unassigned) [Example 32b, 7-Hydroxy-6-{[1-methyl-3-(1H-pyrrolo[2,3-c]pyridin-3-yl)propyl]amino}-4,5,6,7-tetrahydroimidazo[4,5,1-jk][1]benzazeiin-2(1H)-one]	96	1090
Cc1ncsc1CCC(C)N[C@@H]1CCn2c(=O)[nH]c3cccc(c32)[C@H]1O (single isomer, unassigned) [Example 34b, 7-Hydroxy-6-{[1-methyl-3-(4-methyl-1,3-thiazol-5-yl)propyl]amino}-4,5,6,7-tetrahydroimidazo[4,5,1-jk][1]benzazepin-2(1H)-one]	1.4	2.1
CC(CCc1ccc2[nH]ccc2c1)N[C@@H]1CCn2c(=O)[nH]c3cccc(c32)[C@H]1O (single isomer, unassigned) [Example 37]	16	28
CC(CCc1cccc2cc[nH]c12)N[C@@H]1CCn2c(=O)[nH]c3cccc(c32)[C@H]1O (single isomer, unassigned) [Example 38a, 7-Hydroxy-6-{[3-(1H-indol-7-yl)-1-methylpropyl]amino}-4,5,6,7-tetrahydroimidazo[4,5,1-jk][1]benzazepin-2(1H)-one]	44	79

SMILES	EC50 [1] [nM]	EC50 [2] [nM]
CC(CCc1cccc2cc[nH]c12)N[C@@H]1CCn2c(=O)[nH]c3cccc(c32)[C@H]1O (single isomer, unassigned) [Example 38b, 7-Hydroxy-6-{[3-(1H-indol-7-yl)-1-methylpropyl]amino}-4,5,6,7-tetrahydroimidazo[4,5,1-jk][1]benzazepin-2(1H)-one]	0.8	0.9
CC(CCc1cccc2cc[nH]c12)N[C@@H]1CCn2c(=O)[nH]c3cccc(c32)[C@H]1O (single isomer, unassigned) [Example 38c, 7-Hydroxy-6-{[3-(1H-indol-7-yl)-1-methylpropyl]amino}-4,5,6,7-tetrahydroimidazo[4,5,1-jk][1]benzazepin-2(1H)-one]	137	174
CC(CCc1cccnc1N)N[C@@H]1CCn2c(=O)[nH]c3cccc(c32)[C@H]1O (single isomer, unassigned) [Example 44]	1.3	1.8
CC(CCc1cncc(N)c1)N[C@@H]1CCn2c(=O)[nH]c3cccc(c32)[C@H]1O (single isomer, unassigned) [Example 45]	1.4	1.1
CC(CCc1ccc(N)nc1)N[C@@H]1CCn2c(=O)[nH]c3cccc(c32)[C@H]1O (single isomer, unassigned) [Example 46]	3	2.8
CC(CCc1cnsc1)N[C@@H]1CCn2c(=O)[nH]c3cccc(c32)[C@H]1O (single isomer, unassigned) [Example 47]	0.6	0.9
Cc1nn(C)c(C)c1CCC(C)N[C@@H]1CCn2c(=O)[nH]c3cccc(c32)[C@H]1O (single isomer, unassigned) [Example 48]	3.4	3.1
CC(CCc1cncs1)N[C@@H]1CCn2c(=O)[nH]c3cccc(c32)[C@H]1O (single isomer, unassigned) [Example 49]	4.7	6.4
CC(CCn1cnc2ccccc21)N[C@@H]1CCn2c(=O)[nH]c3cccc(c32)[C@H]1O (single isomer, unassigned) [Example 51]	0.6	0.9
CC(CCc1cc(Br)no1)N[C@@H]1CCn2c(=O)[nH]c3cccc(c32)[C@H]1O (single isomer, unassigned) [Example 52]	1.2	1.3
Cc1[nH]c2ccc(F)cc2c1CCC(C)N[C@@H]1CCn2c(=O)[nH]c3cccc(c32)[C@H]1O (single isomer, unassigned) [Example 54]	2.7	3.1
CC(CCc1c[nH]c2cccnc12)N[C@@H]1CCn2c(=O)[nH]c3cccc(c32)[C@H]1O (single isomer, unassigned) [Example 55]	4.4	9.9
CC(CCc1cnn(C)c1)N[C@@H]1CCn2c(=O)[nH]c3cccc(c32)[C@H]1O (single isomer, unassigned) [Example 56]	5.2	2.7
CC(CCc1c[nH]c2cnccc12)N[C@@H]1CCn2c(=O)[nH]c3cccc(c32)[C@H]1O (single isomer, unassigned) [Example 57]	5.7	13
CC(CCc1n[nH]c2ccccc12)N[C@@H]1CCn2c(=O)[nH]c3cccc(c32)[C@H]1O (single isomer, unassigned) [Example 58]	8.3	33
